Measurements from patent US20150239831A1, “INHIBITORS OF CENTRAL NERVOUS SYSTEM VASOACTIVE INHIBITORY PEPTIDE RECEPTOR 2” (The Trustees Of Columbia University In The City Of New York, priority 2012, published 2015).

Columns and labels:
Format in all cases: cell-based
Parameters in all cases: expressed in transfected cells; host or cells: HEK293 cells transfected with VIPR2 in pCDNA3.1 (as described)
VIPR2 [1] = molecular target: T1, VIPR2 (Homo sapiens, UniProt P41587); test: Inhibition of VIP-induced cAMP elevation (% Activity cAMP)
T1 sequence (P41587 24-438): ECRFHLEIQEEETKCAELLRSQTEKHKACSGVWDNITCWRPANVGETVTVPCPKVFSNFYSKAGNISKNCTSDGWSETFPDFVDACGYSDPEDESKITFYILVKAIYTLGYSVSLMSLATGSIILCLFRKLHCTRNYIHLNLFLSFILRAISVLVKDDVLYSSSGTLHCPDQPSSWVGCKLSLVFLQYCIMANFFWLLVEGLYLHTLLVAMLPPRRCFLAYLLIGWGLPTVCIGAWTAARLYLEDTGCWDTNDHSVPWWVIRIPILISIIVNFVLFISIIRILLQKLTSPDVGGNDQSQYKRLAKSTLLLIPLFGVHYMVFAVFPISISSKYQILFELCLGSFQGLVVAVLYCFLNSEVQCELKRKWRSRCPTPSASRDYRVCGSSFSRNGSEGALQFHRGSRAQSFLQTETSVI
Excerpt: (§1) In a further non-limiting embodiment of the invention, the ability of a compound to inhibit VIPR2 and thereby […] a VIP-induced increase in cAMP may be measured using a Homogeneous Time-Resolved Fluorescence (“HTRF® assay; Cisbio Bioassays) as used in Chu et al., 2010, Molecular Pharmacol. 7795-101. In a method as used in Chu et al., 2010, Molecular Pharmacol. 7795-101, HEK293 cells may be transfected with nucleic acid encoding VIPR2, for example human VIPR2 (“hVIPR2”), for example comprised in a vector such as pCDNA3.1 vector. Successful transformants may then be selected, for example using 800 μg/ml G418. Clonal stable cell lines may then be generated by limited dilution to single cells and then may be clonally expanded and tested for VIP -dependent cAMP response. For the cAMP assay, about 3000-15,000 cells (in about 4-25 μl) may be placed in a well of an assay plate. The next day, inhibitor or test inhibitor and VIP may be added in a volume about 1-2 percent of the initial volume. Assay plates may then be returned to a cell incubator for 30 min before addition of a one-half volume of cAMP conjugate and, relative to the amount of cAMP conjugate, an equal volume of anti-cAMP conjugate (Cisbio). After at least 1 h of room-temperature incubation, HTRF signal may be read, for example using Viewlux or EnVision (PerkinElmer Life and Analytical Sciences, Waltham, Mass.). The ratio of […] at 665 nm and 620 nm times 10,000 may be calculated and plotted.
(§2) A series of compounds were prepared using a synthetic method analogous to that set forth in Scheme 1, above, and then tested for their ability to inhibit VIP-induced cAMP elevation and β-arrestin recruitment.
(§3) A series of compounds were prepared using a synthetic method analogous to that set forth in Scheme 1, above, and then tested for their ability to inhibit VIP-induced cAMP elevation and β-arrestin recruitment, as described herein (Discoverx Corporation, Fremont, Calif., US). Compound activities were also tested in a BRET-based assay, as described herein. The results are shown below in Tables 1-4, above.

VIPR2 [2] = molecular target: T1, VIPR2; test: % Activity: inhibition of VIP-induced cAMP elevation and β-arrestin recruitment (Table 2)
Excerpt: as §1
(§4) In a further non-limiting embodiment of the invention, the ability of a compound to inhibit VIPR2 GPCR activity may be tested, for example, using the PathHunter® eXpress β-Arrestin GPCR system (Discoverx Corporation, Fremont, Calif., US), as used by Chu et al., 2010, Molecular Pharmacol. 7795-101. In this assay, β-Arrestin is fused to the “Enzyme Acceptor” (“EA”), an N-terminal deletion mutant of β-gal, and the GPCR of interest is fused to a smaller (42 amino acids), weakly complementing portion of the β-gal enzyme (termed “ProLink™”). In cells that stably express these fusion proteins, the interaction of β-Arrestin and the GPCR following ligand stimulation forces the complementation of the two β-gal fragments resulting in the formation of a functional enzyme that converts substrate to detectable signal. In the absence of an interaction between the GPCR and β-Arrestin, the enzyme activity is low due to the low affinity of the two enzyme fragments. For example, a nucleic acid encoding VIPR2, for example hVIPR2, may be cloned into the ProLink vector (DiscoveRx) for GPCR-ProLink fusion protein production. Parental HEK293 cells that stably express β-arrestin2-β-gal-EA fusion protein (DiscoveRx) may be detached and transiently transfected with the VIPR2-containing vector using Fugene6 transfection reagent in suspension mode. Transfected cells in assay medium may be plated into test plates, for example at 15,000 cells/25 μl/well. After overnight incubation, 500 nl of an inhibitor or test inhibitor may be introduced into the test plate followed by 2 h incubation at 37° C., 5% CO2. Flash detection reagents may be added at 12.5 μl/well. After 5 min to 1 h of room-temperature incubation, the cell plates may be read on CLIPR (PerkinElmer Life and Analytical Sciences)or Acquest (Molecular Devices, Sunnyvale, Calif.) for luminescence signal.
as §3

VIPR2 [3] = molecular target: T1, VIPR2; test: Inhibition of VIP-induced β-arrestin recruitment (% Activity Arrestin)
Excerpt: as §4, §2, §3

inhibition at 0.5 µM (VIPR2 [1]; Batch 1) [%]	inhibition at 1 µM (VIPR2 [1]; Batch 1) [%]	inhibition at 5 µM (VIPR2 [1]; Batch 1) [%]	% Activity (VIPR2 [2]) [%]	inhibition at 0.5 µM (VIPR2 [3]; Batch 1) [%]	inhibition at 1 µM (VIPR2 [3]; Batch 1) [%]	inhibition at 5 µM (VIPR2 [3]; Batch 1) [%]	inhibition at 0.5 µM (VIPR2 [1]; Batch 3) [%]	inhibition at 1 µM (VIPR2 [1]; Batch 3) [%]	inhibition at 5 µM (VIPR2 [1]; Batch 3) [%]	inhibition at 0.5 µM (VIPR2 [3]; Batch 3) [%]	inhibition at 1 µM (VIPR2 [3]; Batch 3) [%]	inhibition at 5 µM (VIPR2 [3]; Batch 3) [%]	inhibition at 0.5 µM (VIPR2 [1]; Batch 2) [%]	inhibition at 1 µM (VIPR2 [1]; Batch 2) [%]	inhibition at 5 µM (VIPR2 [1]; Batch 2) [%]	inhibition at 0.5 µM (VIPR2 [3]; Batch 2) [%]	inhibition at 1 µM (VIPR2 [3]; Batch 2) [%]	inhibition at 5 µM (VIPR2 [3]; Batch 2) [%]	Compound
14.4	16	26.5	21.85	11.3	20.1	17.2	–	–	–	–	–	–	–	–	–	–	–	–	O=C(Cc1cccc(Cl)c1)NC[C@@H](O)C[C@@H](Cc1ccccc1)C(=O)N[C@H]1c2ccccc2C[C@H]1O [Compound A19]
18.4	18.3	19.6	19.8	9.5	17.4	20	–	–	–	–	–	–	–	–	–	–	–	–	O=C(NC[C@@H](O)C[C@@H](Cc1ccccc1)C(=O)N[C@H]1c2ccccc2C[C@H]1O)C(Cl)Cl [Compound A6]
28.6	22.3	28.3	40.15	5.3	28.3	52	–	–	–	–	–	–	–	–	–	–	–	–	O=C(N[C@H]1c2ccccc2C[C@H]1O)[C@H](Cc1ccccc1)C[C@H](O)CNS(=O)(=O)c1ccccc1F [T]
20.8	22.5	19.1	26.2	30.3	27.7	33.3	–	–	–	–	–	–	–	–	–	–	–	–	O=C(NC[C@@H](O)C[C@@H](Cc1ccccc1)C(=O)N[C@H]1c2ccccc2C[C@H]1O)c1ccco1 [Compound A2]

More lines, now with the values behind:

Compound	inhibition at 0.5 µM (VIPR2 [1]; Batch 1) [%]	inhibition at 1 µM (VIPR2 [1]; Batch 1) [%]	inhibition at 5 µM (VIPR2 [1]; Batch 1) [%]	% Activity (VIPR2 [2]) [%]	inhibition at 0.5 µM (VIPR2 [3]; Batch 1) [%]	inhibition at 1 µM (VIPR2 [3]; Batch 1) [%]	inhibition at 5 µM (VIPR2 [3]; Batch 1) [%]	inhibition at 0.5 µM (VIPR2 [1]; Batch 3) [%]	inhibition at 1 µM (VIPR2 [1]; Batch 3) [%]	inhibition at 5 µM (VIPR2 [1]; Batch 3) [%]	inhibition at 0.5 µM (VIPR2 [3]; Batch 3) [%]	inhibition at 1 µM (VIPR2 [3]; Batch 3) [%]	inhibition at 5 µM (VIPR2 [3]; Batch 3) [%]	inhibition at 0.5 µM (VIPR2 [1]; Batch 2) [%]	inhibition at 1 µM (VIPR2 [1]; Batch 2) [%]	inhibition at 5 µM (VIPR2 [1]; Batch 2) [%]	inhibition at 0.5 µM (VIPR2 [3]; Batch 2) [%]	inhibition at 1 µM (VIPR2 [3]; Batch 2) [%]	inhibition at 5 µM (VIPR2 [3]; Batch 2) [%]
CCCCNC(=O)c1ccc(S(=O)(=O)NC[C@@H](O)C[C@@H](Cc2ccccc2)C(=O)N[C@H]2c3ccccc3C[C@H]2O)cc1 [Compound X100]	–	–	–	7.55	–	–	–	-0.4	5.9	20.6	-0.4	2.9	-5.5	–	–	–	–	–	–
Cc1cc(S(=O)(=O)NC[C@@H](O)C[C@@H](Cc2ccccc2)C(=O)N[C@H]2c3ccccc3C[C@H]2O)c(C)cc1Cl [Compound A3]	20.6	21.6	41.1	20.85	17.6	30.2	0.6	–	–	–	–	–	–	–	–	–	–	–	–
CNC(=O)[C@H](Cc1ccccc1)C[C@H](O)CNS(=O)(=O)c1ccc([N+](=O)[O-])cc1 [Compound B20]	–	–	–	6.25	–	–	–	–	–	–	–	–	–	7	8.3	9.3	6.9	4	3.2
O=C(NC1CCCc2ccccc21)[C@@H](Cc1ccccc1)C[C@H](O)CNS(=O)(=O)c1ccc([N+](=O)[O-])cc1 (some centres unmarked) [Compound B13B]	–	–	–	9.0000	–	–	–	–	–	–	–	–	–	5.1	6.6	17.4	4.8	6.9	0.6
COc1ccc(S(=O)(=O)NC[C@@H](O)C[C@@H](Cc2ccccc2)C(=O)N[C@H]2c3ccccc3C[C@H]2O)cc1OC [S]	21.1	20.4	28.2	30.1	10.5	23.2	32	–	–	–	–	–	–	–	–	–	–	–	–
O=C([C@H](Cc1ccccc1)C[C@H](O)CNS(=O)(=O)c1ccc([N+](=O)[O-])cc1)N1CCOCC1 [Compound B9A]	–	–	–	0.6	–	–	–	–	–	–	–	–	–	-3.8	-1.6	2.4	-4.3	8.9	-1.2
CC(=O)Nc1ccc(S(=O)(=O)NC[C@H](C[C@@H](Cc2ccccc2)C(=O)N[C@H]2c3ccccc3C[C@H]2O)OC(C)=O)cc1 [Compound X089]	–	–	–	6.75	–	–	–	-4.3	32.3	3	-9.8	-1.8	10.5	–	–	–	–	–	–
